For data set [1], the system named is MCF7 (human breast adenocarcinoma). The arrangement: method as in PMID 31237306. The following applies: nd = not detectable, read-out: Half maximal inhibitory concentration (IC50); cited from earlier work.
Data set [2] concerns A549 (human lung carcinoma). The arrangement: method as in PMID 31237306. The following applies: nd = not detectable, read-out: Half maximal inhibitory concentration (IC50); cited from earlier work.
Data set [3] deals with T1, human serum albumin (HSA) (Homo sapiens, UniProt P02768).
T1 construct: High purity free-HSA (>96%, Sigma-Aldrich, Steinheim, North Rhine-Westphalia, Germany) was used as purchased; purchased Sigma-Aldrich
T1 sequence (P02768 25-609): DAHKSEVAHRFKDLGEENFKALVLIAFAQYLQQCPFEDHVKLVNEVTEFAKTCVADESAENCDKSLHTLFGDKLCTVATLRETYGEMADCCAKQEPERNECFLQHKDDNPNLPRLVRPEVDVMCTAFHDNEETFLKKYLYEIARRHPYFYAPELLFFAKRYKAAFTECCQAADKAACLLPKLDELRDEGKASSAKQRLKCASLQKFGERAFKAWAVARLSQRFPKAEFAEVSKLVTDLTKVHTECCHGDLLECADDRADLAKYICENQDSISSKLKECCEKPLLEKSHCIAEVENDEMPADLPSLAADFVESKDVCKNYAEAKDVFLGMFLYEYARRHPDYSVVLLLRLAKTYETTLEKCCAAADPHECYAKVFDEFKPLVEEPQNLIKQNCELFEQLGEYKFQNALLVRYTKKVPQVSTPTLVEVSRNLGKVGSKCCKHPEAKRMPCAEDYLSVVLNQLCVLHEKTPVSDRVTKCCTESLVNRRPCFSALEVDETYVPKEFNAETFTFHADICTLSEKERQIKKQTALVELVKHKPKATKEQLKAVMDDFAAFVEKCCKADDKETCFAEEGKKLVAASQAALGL
The note with it: under the same conditions; cited from earlier work.

The test system of data set [4] is HeLa (human cervix carcinoma). On the set-up: method as in PMID 31237306. The note with it: nd = not detectable, read-out: Half maximal inhibitory concentration (IC50); cited from earlier work.
The test system of data set [5] is NHDF (normal human dermal fibroblasts). The arrangement: method as in PMID 31237306. The following applies: nd = not detectable, read-out: Half maximal inhibitory concentration (IC50); cited from earlier work.
Data set [6] has the same test system. The experiment in a line: MTT cell viability assay, NHDF. The class given is cell-based. The following applies: 72 h incubation, read-out: Half maximal inhibitory concentration (IC50). Here is the method:
(§1) NHDF (normal human dermal fibroblasts; PromoCell, C-12302), A549 (human lung carcinoma; ATCC, No CCL-185 ^TM), HeLa (human cervix carcinoma; ATCC, No CCL-2 ^TM) and MCF7 (human breast adenocarcinoma; ATCC, No HTB-22 ^TM) were used. NHDF, A549, HeLa and MCF7 cell lines were cultured in DMEM (Lonza, Basel, Switzerland). Media were supplemented with 10% FBS (Biological Industries, Kibbutz Beit-Haemek, Israel), 4 mM L-glutamine (Biological Industries, Kibbutz Beit-Haemek, Israel), 100 U/mL of penicillin and 100 µg/mL of streptomycin (Sigma, Steinheim, North Rhine-Westphalia, Germany).
(§2) All cell cultures were inserted in a 96-well plate (Eppendorf, Freie und Hansestadt Hamburg, Germany) in a concentration of 10^5 cells per well.
(§3) Compounds 2a–c and ligands 1a–c were dissolved in distilled water and diluted to afford concentrations of 30, 3, 0.3 and 0.03 μg/mL in DMEM and incubated in standard conditions for 72 h, after which the MTT (Sigma, Steinheim, North Rhine-Westphalia, Germany) assay was carried out. 20 µL of MTT (5 mg/mL) was added to each well, incubation for 4 h at 37 °C was implemented, and then 80 µL of lysis buffer was added. The test consists in the enzymatic reduction of the tetrazolium salt MTT in metabolically active cells. The metabolite, purple-colored formazan is measured colorimetrically, using a multiwell plate reader. The optical density (OD) was measured using a spectrophotometric microplate reader (Multiscan Go, Thermo Fisher, Waltham, MA, USA) at 570 nm with reference wavelength of 630 nm. The viability of the investigated cell cultures was estimated using following formula: viability% = (average OD for test group/average OD for control group) × 100. The untreated cells were used as a control group.
For orientation: Tetrazolium assays rely on reduction of a dye to a coloured formazan, in cell work by metabolically active cells.

Data set [7] has as its system A549 (human lung carcinoma). In words: MTT cell viability assay, A549. The class given is cell-based. The following applies: A549, 72 h incubation, read-out: Half maximal inhibitory concentration (IC50). Here is the method: as §1, §2, §3
For data set [8], the system named is MCF7 (human breast adenocarcinoma). In words: MTT cell viability assay, MCF7. The class given is cell-based. The note with it: MCF7, 72 h incubation, read-out: Half maximal inhibitory concentration (IC50). As for the experimental part: as §1, §2, §3
Data set [9] deals with HeLa (human cervix carcinoma). The experiment in a line: MTT cell viability assay, HeLa. The class given is cell-based. The following applies: 72 h incubation, read-out: Half maximal inhibitory concentration (IC50). As for the experimental part: as §1, §2, §3
The target of data set [10] is T1, human serum albumin (HSA). The experiment in a line: HSA interaction, circular dichroism. It is filed as binding. The following applies: HSA/complex molar ratio 1/10; free HSA 50.88%. Here is the method:
High purity free-HSA (>96%, Sigma-Aldrich, Steinheim, North Rhine-Westphalia, Germany) was used as purchased. The stock solutions of platinum complexes (200 μM) were freshly prepared in double distilled water prior to their use. The HSA solutions (200 μM) were prepared in PBS (pH 7.40). […] Measurements were done after 24 h incubation at 300, 305 and 310 K. HSA concentration was determined, using A279 (1 mg/mL) as 0.531 [85].
Circular dichroism spectra were recorded on a Jasco J-715 spectropolarimeter, over the range of 190–250 nm in 0.1 cm cuvettes. The α-helical content of HSA was calculated from the molar ellipticity (θ) at 208–210 nm using Equations (1) and (2): (1) MRE209=ObservedCD (mdeg)/Cp·n·l·10, (2) α−helix (%)=MRE209−4000/33000−4000×100, where MRE is the mean residue ellipticity, Cp is the molar concentration of the protein, n is the number of amino acid residues (583) and l is the path-length (0.1 cm).
In general terms: Circular dichroism is the unequal absorption of left and right circularly polarised light.

Data set [11] addresses T1, human serum albumin (HSA). In words: HSA interaction, fluorescence quenching (Trp-214). It is filed as binding. The following applies: for KSV (Stern-Volmer constant): HSA 10 μM, pH 7.40; for ΔH^0 / ΔS^0: van't Hoff; for maximum blue shift of HSA fluorescence emission: HSA emission max 335 nm, λex 295 nm. Here is the method: High purity free-HSA (>96%, Sigma-Aldrich, Steinheim, North Rhine-Westphalia, Germany) was used as purchased. The stock solutions of platinum complexes (200 μM) were freshly prepared in double distilled water prior to their use. The HSA solutions (200 μM) were prepared in PBS (pH 7.40). In the final step, the samples contained (protein):(drug) equal 1:0–1:9 in PBS, where CHSA was 10 μM. Measurements were done after 24 h incubation at 300, 305 and 310 K. HSA concentration was determined, using A279 (1 mg/mL) as 0.531 [85].
Emission fluorescence spectra were recorded using Hitachi F-2700 spectrofluorimeter (Tokio, Japan) in 1.0 cm quartz cells in the 300–400 nm range. Trp-214 fluorescence of HSA was measured at 295 nm. The intensity at 335 nm (Trp-214) was used to achieve the quenching mechanism and calculate the binding constants and thermodynamic parameters according to literature reports.

Data set [12] in a line: Solubility in water. The class given is physicochemical. The note with it: 25 °C.
Data set [13] is described as follows: Octanol-water partition coefficient determination. It is filed as physicochemical. The following applies: 24 °C, 10^−3 M in water saturated with octanol. As for the experimental part:
The log(P) values corresponding to the octanol–water partition coefficient was adjusted to the solubility properties of the compounds [84]. Complexes were dissolved in water previously saturated with octanol, to achieve concentrations of 10^−3 M. At 24 °C, 25 mL of octanol saturated with water was introduced into a 100 mL flask equipped and then 25 mL of the aqueous complex solutions was added. The two-phase mixture thus obtained was stirred vigorously for 20 min. After separation of the phases and removal of the respective solvents under vacuum, the attained residues were weighed. Values for log(P) of −0.11, −0.71 and −0.40 for 2a, 2b and 2c, respectively, were obtained.

Data on 6 compounds can be found in publication PMC6926962, “Pentafluorophenyl Platinum(II) Complexes of PTA and Its N-Allyl and N-Benzyl Derivatives: Synthesis, Characterization and Biological Activity” (Materials, 2019).

Read-outs that look alike come from different tables or passages of the source.

Consider `N.N.[Cl][Pt][Cl]` [Cisplatin, cisplatin], for which the IC50 in data set [1] is 33.3 ± 4.2 µM; in data set [2], 33.3 ± 4.2 µM; in [4] it was 16.6 ± 3.1 µM; in [5], 16.6 ± 2.1 µM. In addition, the “binding constant Ka for cisplatin-HSA complex” value in [3] is 852 M⁻¹.
Take `C=CC[N+]12CN3CN(CP(C3)C1)C2` [Compound 1b, 1-allyl-1-azonia-3,5-diaza-7-phosphaadamantane]: the IC50 in data set [6] (Homo sapiens) is above 263 µM; in data set [7] (Homo sapiens), above 263 µM; in data set [8] (Homo sapiens), above 263 µM; in data set [9] (Homo sapiens), 65.8 ± 6.6 µM.
On to `c1ccc(C[N+]23CN4CN(CP(C4)C2)C3)cc1` [Compound 1c, 1-benzyl-1-azonia-3,5-diaza-7-phosphaadamantane], for which the IC50 in data set [6] (Homo sapiens) was above 224 µM; in [7] (Homo sapiens), above 224 µM; in [8] (Homo sapiens), 72.4 ± 2.4 µM; in data set [9] (Homo sapiens), 56 ± 16 µM.
For the compound `C=CC[N+]12CN3CN(C1)C[PH]([Pt]([Cl])([c]1c(F)c(F)c(F)c(F)c1F)[PH]14CN5CN(C[N+](CC=C)(C5)C1)C4)(C3)C2.F[B-](F)(F)F.F[B-](F)(F)F` [Compound 2b, trans-(PtCl(C6F5)(APTA)2)(BF4)2], the IC50 in data set [6] is 26.9 ± 3.5 µM. Besides, the IC50 in data set [7] is 7.79 ± 1.7 µM. In addition, the “content of α-helix of HSA” value in data set [10] was 46.29%. Besides, the IC50 in data set [8] was above 31 µM. The IC50 in [9] turned out to be 29.5 ± 1.3 µM. Also, in [11] (300 K), the “KA (association constant)” value stood at 9880 M⁻¹, the “Kq (quenching rate constant)” value came out at 1.77e+12 M⁻¹ s⁻¹, the “n (number of binding sites)” value is reported as 1.26 and the “ΔG^0” value was -5.43 kcal/mol. Further, in data set [11] (300 K), the “KSV (Stern-Volmer constant)” value worked out at 8850 M⁻¹, the “ΔH^0” value stood at 4.02 kcal/mol and the “ΔS^0” value turned out to be 131.4 J mol^−1·K^−1. In data set [11] (305 K), the “KA (association constant)” value amounted to 9900 M⁻¹, the “Kq (quenching rate constant)” value was 1.96e+12 M⁻¹ s⁻¹, the “n (number of binding sites)” value came out at 0.96 and the “ΔG^0” value was -5.57 kcal/mol. Also, in [11] (305 K), the “KSV (Stern-Volmer constant)” value was 9780 M⁻¹, the “ΔH^0” value worked out at 4.02 kcal/mol and the “ΔS^0” value is listed as 131.4 J mol^−1·K^−1. In addition, in data set [11] (310 K), the “KA (association constant)” value stood at 11000 M⁻¹, the “Kq (quenching rate constant)” value was determined as 2.08e+12 M⁻¹ s⁻¹, the “n (number of binding sites)” value is given as 1.24 and the “KSV (Stern-Volmer constant)” value is 10400 M⁻¹. Besides, the “maximum blue shift of HSA fluorescence emission” value in data set [11] was “ca. 3 nm”. The “solubility in H2O (S25 °C)” value in data set [12] is given as “≈ 4.0 mg mL^−1”. For the same compound, the “log(P) octanol-water partition coefficient” value in data set [13] is −0.71.
Regarding `F[B-](F)(F)F.F[B-](F)(F)F.Fc1c(F)c(F)[c]([Pt-3]([Cl])([P+]23CN4CN(C[N+](Cc5ccccc5)(C4)C2)C3)[P+]23CN4CN(C[N+](Cc5ccccc5)(C4)C2)C3)c(F)c1F` [Compound 2c, trans-(PtCl(C6F5)(BzPTA)2)(BF4)2], the IC50 in [6] is 11.2 ± 3.1 µM. Moreover, in data set [7], the IC50 was above 28.1 µM. In addition, in data set [10], the “content of α-helix of HSA” value turned out to be 47.17%. The IC50 in data set [8] was above 28.1 µM. In addition, the IC50 in data set [9] stood at 8.89 ± 4.1 µM. In addition, in [11] (300 K), the “KA (association constant)” value amounted to 14500 M⁻¹, the “Kq (quenching rate constant)” value was 2.72e+12 M⁻¹ s⁻¹, the “n (number of binding sites)” value is given as 1.25 and the “ΔG^0” value is -5.71 kcal/mol. In [11] (300 K), the “KSV (Stern-Volmer constant)” value stood at 13600 M⁻¹, the “ΔH^0” value was 1.71 kcal/mol and the “ΔS^0” value amounted to 103.5 J mol^−1·K^−1. Also, in data set [11] (305 K), the “KA (association constant)” value worked out at 15200 M⁻¹, the “Kq (quenching rate constant)” value was 2.96e+12 M⁻¹ s⁻¹, the “n (number of binding sites)” value is on record as 0.99 and the “ΔG^0” value was -5.83 kcal/mol. In addition, in data set [11] (305 K), the “KSV (Stern-Volmer constant)” value was 14800 M⁻¹, the “ΔH^0” value is 1.71 kcal/mol and the “ΔS^0” value is given as 103.5 J mol^−1·K^−1. Further, in data set [11] (310 K), the “KA (association constant)” value was found to be 15900 M⁻¹, the “Kq (quenching rate constant)” value is 3.24e+12 M⁻¹ s⁻¹, the “n (number of binding sites)” value is recorded as 1.59 and the “KSV (Stern-Volmer constant)” value amounted to 16200 M⁻¹. The “maximum blue shift of HSA fluorescence emission” value in data set [11] is given as around 5 nm. In addition, the “solubility in H2O (S25 °C)” value in data set [12] is “≈ 3.0 mg mL^−1”. The “log(P) octanol-water partition coefficient” value in data set [13] was −0.40.
On to trans-(PtCl(C6F5)(PTA)2) [Compound 2a], for which the IC50 was 26.1 ± 0.68 µM in data set [6], 15.4 ± 5.3 µM in [7], above 42.1 µM in [8] and above 42.1 µM in [9]. Besides, in data set [12], the “solubility in H2O (S25 °C)” value is “≈ 0.35 mg mL^−1”. Besides, the “log(P) octanol-water partition coefficient” value in [13] is listed as −0.11.
